Here are results for two molecules from PubChem BioAssay (NCI).

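Tested at 5 concentrations; 48 h exposure; 96-well plates; endpoints linearly interpolated, else capped at highest concentration. GI50 marks 50% less growth. TGI denotes the concentration required for complete inhibition of growth.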

Among the test systems are CCRF-CEM leukemia; HS 578T breast; MALME-3M melanoma; NCI-H522 lung; SK-MEL-28 melanoma; SK-MEL-5 melanoma; SN12C renal; SNB-19 CNS; SR leukemia; U251 CNS.
What all share (test): growth of human tumour cells (NCI), 48 h

Take `O=c1[nH]c(SCc2c(Cl)c(Cl)c(Cl)c(Cl)c2Cl)nc(=S)[nH]1`: the TGI in the assay on CCRF-CEM leukemia is 36.9 µM; in the assay with HS 578T breast it was greater than 100 µM; in the assay with MALME-3M melanoma it was 73.4 µM; with NCI-H522 lung, 34.4 µM; with SK-MEL-28 melanoma, 98.6 µM; in the assay with SK-MEL-5 melanoma, greater than 100 µM. Besides, the TGI in the assay on SN12C renal was greater than 100 µM; in the assay on SNB-19 CNS, greater than 100 µM; in the assay on SR leukemia, 0.516 µM; with U251 CNS it was greater than 100 µM.
For the molecule `COc1cc2c3c(n(C)c(=O)c2cc1OC)-c1cc2c(cc1/C3=C\CCCBr)OCO2`, the GI50 with CCRF-CEM leukemia was 14.3 µM; with HS 578T breast it was 14.4 µM; with MALME-3M melanoma it was 7.2 µM; with SK-MEL-28 melanoma, greater than 100 µM; with SK-MEL-5 melanoma, greater than 69.5 µM; with SN12C renal it was greater than 100 µM. The GI50 with SNB-19 CNS was 23.4 µM; in the assay on SR leukemia, 13.3 µM; in the assay with U251 CNS, 13.2 µM. The TGI in the assay on CCRF-CEM leukemia is 50.3 µM; with HS 578T breast, greater than 57.4 µM; in the assay with MALME-3M melanoma it was greater than 45.4 µM; in the assay with NCI-H522 lung it was greater than 30.2 µM; with SK-MEL-28 melanoma, greater than 100 µM; in the assay on SK-MEL-5 melanoma, greater than 100 µM. The TGI with SN12C renal is greater than 100 µM; in the assay on SNB-19 CNS it was greater than 65.8 µM; in the assay on SR leukemia, greater than 100 µM; in the assay with U251 CNS, greater than 60.3 µM.
